Results: PMC9133015 (Nature Communications, 2022)
Several values for one entry are separate records, joined by “and”; a condition that tells them apart may be missing. Equal values may be shown once.

What was measured:
Assay in all cases: Kinase inhibitor specificity profiling (Reaction Biology Corporation)
Format in all cases: biochemical
Design in all cases: % Enzyme Activity (relative to DMSO controls): concentration or dose not given beside the values
[1] = molecular target: T1, panel of 370 protein kinases (Homo sapiens, UniProt O14920); details: 2 h, kinase IKKb/IKBKB; read-out: % Enzyme Activity (relative to DMSO controls)
T1 construct: purchased Reaction Biology Corporation (assay service)

[2] = molecular target: T2, panel of 370 protein kinases (Homo sapiens, UniProt O15111); details: 2 h, kinase IKKa/CHUK; read-out: % Enzyme Activity (relative to DMSO controls)
T2 construct: purchased Reaction Biology Corporation (assay service)

[3] = molecular target: T3, panel of 370 protein kinases (Homo sapiens, UniProt O75582); details: 2 h, kinase MSK1/RPS6KA5; read-out: % Enzyme Activity (relative to DMSO controls)
T3 construct: purchased Reaction Biology Corporation (assay service)
T3 sequence (O75582 whole entry): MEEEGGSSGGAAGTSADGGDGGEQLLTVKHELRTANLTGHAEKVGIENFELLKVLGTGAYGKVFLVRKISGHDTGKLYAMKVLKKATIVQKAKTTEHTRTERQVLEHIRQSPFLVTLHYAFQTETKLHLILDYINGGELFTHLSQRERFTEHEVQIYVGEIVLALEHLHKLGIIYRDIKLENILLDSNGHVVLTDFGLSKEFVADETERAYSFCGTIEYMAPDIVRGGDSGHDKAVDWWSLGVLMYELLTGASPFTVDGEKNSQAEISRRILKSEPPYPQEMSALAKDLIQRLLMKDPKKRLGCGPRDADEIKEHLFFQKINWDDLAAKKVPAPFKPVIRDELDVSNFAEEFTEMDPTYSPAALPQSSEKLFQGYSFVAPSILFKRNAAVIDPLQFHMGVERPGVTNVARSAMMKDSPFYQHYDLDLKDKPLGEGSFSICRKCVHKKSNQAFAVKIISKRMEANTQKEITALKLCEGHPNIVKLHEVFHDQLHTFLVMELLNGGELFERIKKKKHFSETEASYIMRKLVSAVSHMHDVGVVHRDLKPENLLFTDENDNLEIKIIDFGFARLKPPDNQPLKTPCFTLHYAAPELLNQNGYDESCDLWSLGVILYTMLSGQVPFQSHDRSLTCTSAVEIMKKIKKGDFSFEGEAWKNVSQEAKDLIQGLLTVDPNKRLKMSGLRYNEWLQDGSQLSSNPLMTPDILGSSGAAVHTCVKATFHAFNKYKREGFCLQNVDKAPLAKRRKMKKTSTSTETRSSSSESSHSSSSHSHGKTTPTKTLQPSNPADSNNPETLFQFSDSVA

[4] = molecular target: T4, panel of 370 protein kinases (Homo sapiens, UniProt O96013); details: 2 h, kinase PAK4; read-out: % Enzyme Activity (relative to DMSO controls)
T4 construct: purchased Reaction Biology Corporation (assay service)
T4 sequence (O96013 whole entry): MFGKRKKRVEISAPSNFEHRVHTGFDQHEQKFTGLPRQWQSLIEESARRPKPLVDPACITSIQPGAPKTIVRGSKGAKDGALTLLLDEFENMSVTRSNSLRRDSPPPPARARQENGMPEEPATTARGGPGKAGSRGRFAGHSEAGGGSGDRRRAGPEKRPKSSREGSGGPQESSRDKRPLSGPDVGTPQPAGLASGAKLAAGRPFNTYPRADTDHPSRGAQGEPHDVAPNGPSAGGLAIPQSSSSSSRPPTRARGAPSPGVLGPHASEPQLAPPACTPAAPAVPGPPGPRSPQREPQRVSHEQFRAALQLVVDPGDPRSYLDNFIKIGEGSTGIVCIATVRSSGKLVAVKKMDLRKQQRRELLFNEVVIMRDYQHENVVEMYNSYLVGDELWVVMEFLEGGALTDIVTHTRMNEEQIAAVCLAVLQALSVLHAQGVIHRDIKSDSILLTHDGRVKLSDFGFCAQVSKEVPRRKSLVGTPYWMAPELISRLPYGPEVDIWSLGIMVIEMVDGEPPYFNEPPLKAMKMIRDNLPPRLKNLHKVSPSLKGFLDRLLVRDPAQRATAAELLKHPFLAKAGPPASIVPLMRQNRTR

[5] = molecular target: T5, panel of 370 protein kinases (Homo sapiens, UniProt P06213); details: 2 h, kinase IR; read-out: % Enzyme Activity (relative to DMSO controls)
T5 construct: purchased Reaction Biology Corporation (assay service)

[6] = molecular target: T6, panel of 370 protein kinases (Homo sapiens, UniProt P07332); details: 2 h, kinase FES/FPS; read-out: % Enzyme Activity (relative to DMSO controls)
T6 construct: purchased Reaction Biology Corporation (assay service)

[7] = molecular target: T7, panel of 370 protein kinases (Homo sapiens, UniProt P15735); details: 2 h, kinase PHKg2; read-out: % Enzyme Activity (relative to DMSO controls)
T7 construct: purchased Reaction Biology Corporation (assay service)
T7 sequence (P15735 whole entry): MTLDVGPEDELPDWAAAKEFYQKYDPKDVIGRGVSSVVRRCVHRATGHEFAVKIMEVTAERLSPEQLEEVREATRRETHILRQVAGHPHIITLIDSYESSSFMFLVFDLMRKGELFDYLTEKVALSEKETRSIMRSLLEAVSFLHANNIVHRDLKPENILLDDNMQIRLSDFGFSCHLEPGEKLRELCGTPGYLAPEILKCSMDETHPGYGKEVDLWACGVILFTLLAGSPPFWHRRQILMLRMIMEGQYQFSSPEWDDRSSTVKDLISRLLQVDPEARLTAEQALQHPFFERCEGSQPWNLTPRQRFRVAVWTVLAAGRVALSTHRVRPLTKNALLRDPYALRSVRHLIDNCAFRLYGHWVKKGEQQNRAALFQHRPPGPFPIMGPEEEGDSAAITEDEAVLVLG

[8] = molecular target: T8, panel of 370 protein kinases (Homo sapiens, UniProt P29317); details: 2 h, kinase EPHA2; read-out: % Enzyme Activity (relative to DMSO controls)
T8 construct: purchased Reaction Biology Corporation (assay service)

[9] = molecular target: T9, panel of 370 protein kinases (Homo sapiens, UniProt P41743); details: 2 h, kinase PKCiota; read-out: % Enzyme Activity (relative to DMSO controls)
T9 construct: purchased Reaction Biology Corporation (assay service)
T9 sequence (P41743 whole entry): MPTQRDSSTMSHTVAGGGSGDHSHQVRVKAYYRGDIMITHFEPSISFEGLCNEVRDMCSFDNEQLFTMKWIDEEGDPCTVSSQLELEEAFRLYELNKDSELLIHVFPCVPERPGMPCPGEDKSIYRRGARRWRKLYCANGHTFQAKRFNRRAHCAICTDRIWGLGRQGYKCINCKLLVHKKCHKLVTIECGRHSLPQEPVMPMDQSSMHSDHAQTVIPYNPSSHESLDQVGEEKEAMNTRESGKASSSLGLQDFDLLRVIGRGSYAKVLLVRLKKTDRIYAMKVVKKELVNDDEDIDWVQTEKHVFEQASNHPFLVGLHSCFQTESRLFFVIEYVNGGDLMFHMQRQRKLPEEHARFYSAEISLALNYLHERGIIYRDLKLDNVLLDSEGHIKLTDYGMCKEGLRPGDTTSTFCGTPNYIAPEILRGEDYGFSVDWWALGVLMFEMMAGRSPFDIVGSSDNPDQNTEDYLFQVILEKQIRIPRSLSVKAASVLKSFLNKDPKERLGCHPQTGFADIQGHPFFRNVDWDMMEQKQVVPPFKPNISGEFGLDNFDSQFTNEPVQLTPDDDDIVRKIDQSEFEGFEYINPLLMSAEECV

[10] = molecular target: T10, panel of 370 protein kinases (Homo sapiens, UniProt P49841); details: 2 h, kinase GSK3b; read-out: % Enzyme Activity (relative to DMSO controls)
T10 construct: purchased Reaction Biology Corporation (assay service)

[11] = molecular target: T11, panel of 370 protein kinases (Homo sapiens, UniProt Q08345); details: 2 h, kinase DDR1; read-out: % Enzyme Activity (relative to DMSO controls)
T11 construct: purchased Reaction Biology Corporation (assay service)

[12] = molecular target: T12, panel of 370 protein kinases (Homo sapiens, UniProt Q13163); details: 2 h, kinase MEK5; read-out: % Enzyme Activity (relative to DMSO controls)
T12 construct: purchased Reaction Biology Corporation (assay service)

[13] = molecular target: T13, panel of 370 protein kinases (Homo sapiens, UniProt Q14164); details: 2 h, kinase IKKe/IKBKE; read-out: % Enzyme Activity (relative to DMSO controls)
T13 construct: purchased Reaction Biology Corporation (assay service)
T13 sequence (Q14164 whole entry): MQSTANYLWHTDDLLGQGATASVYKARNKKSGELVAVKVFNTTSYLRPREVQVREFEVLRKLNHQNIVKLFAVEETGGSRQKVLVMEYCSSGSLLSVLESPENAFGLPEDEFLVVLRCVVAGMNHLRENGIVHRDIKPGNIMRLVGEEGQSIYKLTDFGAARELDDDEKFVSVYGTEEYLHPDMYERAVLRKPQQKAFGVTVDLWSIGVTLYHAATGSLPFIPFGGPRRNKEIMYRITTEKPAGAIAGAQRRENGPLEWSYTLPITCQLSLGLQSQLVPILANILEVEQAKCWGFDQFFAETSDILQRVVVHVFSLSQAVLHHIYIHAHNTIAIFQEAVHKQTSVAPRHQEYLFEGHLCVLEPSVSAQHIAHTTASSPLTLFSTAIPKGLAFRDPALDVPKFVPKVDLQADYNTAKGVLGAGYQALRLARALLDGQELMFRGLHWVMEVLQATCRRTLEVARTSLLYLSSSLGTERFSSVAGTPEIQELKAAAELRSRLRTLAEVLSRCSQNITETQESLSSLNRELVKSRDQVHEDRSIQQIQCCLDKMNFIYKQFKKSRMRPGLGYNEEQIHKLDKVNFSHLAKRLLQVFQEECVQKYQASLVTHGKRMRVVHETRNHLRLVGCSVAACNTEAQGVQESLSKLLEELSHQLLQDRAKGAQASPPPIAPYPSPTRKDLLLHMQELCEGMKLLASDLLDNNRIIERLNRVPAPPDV

[14] = molecular target: T14, panel of 370 protein kinases (Homo sapiens, UniProt Q15569); details: 2 h, kinase TESK1; read-out: % Enzyme Activity (relative to DMSO controls)
T14 construct: purchased Reaction Biology Corporation (assay service)

[15] = molecular target: T15, panel of 370 protein kinases (Homo sapiens, UniProt Q6P5Z2); details: kinase PKN3/PRK3
T15 construct: purchased Reaction Biology Corporation (assay service)
T15 sequence (Q6P5Z2 whole entry): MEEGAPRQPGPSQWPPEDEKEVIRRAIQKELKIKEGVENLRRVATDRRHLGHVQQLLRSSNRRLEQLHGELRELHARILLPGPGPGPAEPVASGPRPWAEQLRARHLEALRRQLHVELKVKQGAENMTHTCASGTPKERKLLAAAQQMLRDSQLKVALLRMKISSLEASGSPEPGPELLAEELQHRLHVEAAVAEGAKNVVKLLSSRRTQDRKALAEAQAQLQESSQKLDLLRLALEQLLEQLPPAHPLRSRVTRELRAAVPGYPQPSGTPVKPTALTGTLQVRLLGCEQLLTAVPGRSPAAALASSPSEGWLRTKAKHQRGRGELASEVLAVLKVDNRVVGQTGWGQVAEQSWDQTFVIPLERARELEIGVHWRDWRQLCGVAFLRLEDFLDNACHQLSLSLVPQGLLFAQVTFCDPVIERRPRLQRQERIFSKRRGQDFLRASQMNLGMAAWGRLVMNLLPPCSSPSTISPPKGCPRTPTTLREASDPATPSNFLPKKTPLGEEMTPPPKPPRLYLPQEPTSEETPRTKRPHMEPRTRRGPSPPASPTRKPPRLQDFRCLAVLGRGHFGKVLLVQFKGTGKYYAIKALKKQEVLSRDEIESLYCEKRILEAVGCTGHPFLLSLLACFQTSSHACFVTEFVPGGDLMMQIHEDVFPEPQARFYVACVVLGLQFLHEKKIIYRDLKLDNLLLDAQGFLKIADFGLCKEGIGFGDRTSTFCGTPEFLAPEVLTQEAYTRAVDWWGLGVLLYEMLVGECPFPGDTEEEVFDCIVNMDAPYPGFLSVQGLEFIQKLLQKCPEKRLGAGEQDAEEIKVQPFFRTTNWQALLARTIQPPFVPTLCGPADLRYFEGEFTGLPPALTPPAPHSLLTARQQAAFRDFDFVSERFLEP

[16] = molecular target: T16, panel of 370 protein kinases (Homo sapiens, UniProt Q8IWQ3); details: 2 h, kinase BRSK2; read-out: % Enzyme Activity (relative to DMSO controls)
T16 construct: purchased Reaction Biology Corporation (assay service)
T16 sequence (Q8IWQ3 whole entry): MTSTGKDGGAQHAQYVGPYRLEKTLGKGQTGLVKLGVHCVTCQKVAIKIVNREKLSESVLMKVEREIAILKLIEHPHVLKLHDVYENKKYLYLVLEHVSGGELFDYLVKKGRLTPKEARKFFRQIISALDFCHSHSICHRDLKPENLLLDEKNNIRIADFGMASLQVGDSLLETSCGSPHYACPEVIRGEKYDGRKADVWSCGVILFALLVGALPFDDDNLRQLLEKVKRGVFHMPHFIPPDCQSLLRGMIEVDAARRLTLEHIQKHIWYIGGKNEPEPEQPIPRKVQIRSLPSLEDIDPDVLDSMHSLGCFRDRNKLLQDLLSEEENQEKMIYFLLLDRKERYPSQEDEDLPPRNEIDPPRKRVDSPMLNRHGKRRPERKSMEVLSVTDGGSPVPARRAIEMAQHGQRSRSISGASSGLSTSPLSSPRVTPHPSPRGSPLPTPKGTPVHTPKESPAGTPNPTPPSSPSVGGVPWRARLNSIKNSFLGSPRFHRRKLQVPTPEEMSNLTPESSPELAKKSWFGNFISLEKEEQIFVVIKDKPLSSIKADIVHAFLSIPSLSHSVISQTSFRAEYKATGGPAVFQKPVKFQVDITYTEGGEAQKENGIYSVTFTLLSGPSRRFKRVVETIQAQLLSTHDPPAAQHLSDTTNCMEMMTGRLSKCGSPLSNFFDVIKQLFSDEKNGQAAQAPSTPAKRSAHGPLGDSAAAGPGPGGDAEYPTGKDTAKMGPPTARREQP

[17] = molecular target: T17, panel of 370 protein kinases (Homo sapiens, UniProt Q8N752); details: 2 h, kinase CK1a1L; read-out: % Enzyme Activity (relative to DMSO controls)
T17 construct: purchased Reaction Biology Corporation (assay service)

[18] = molecular target: T18, panel of 370 protein kinases (Homo sapiens, UniProt Q8TD08); details: 2 h, kinase ERK7/MAPK15; read-out: % Enzyme Activity (relative to DMSO controls)
T18 construct: purchased Reaction Biology Corporation (assay service)

[19] = molecular target: T19, panel of 370 protein kinases (Homo sapiens, UniProt Q99683); details: 2 h, kinase ASK1/MAP3K5; read-out: % Enzyme Activity (relative to DMSO controls)
T19 construct: purchased Reaction Biology Corporation (assay service)

[20] = molecular target: T20, panel of 370 protein kinases (Homo sapiens, UniProt Q9BXA6); details: 2 h, kinase SSTK/TSSK6; read-out: % Enzyme Activity (relative to DMSO controls)
T20 construct: purchased Reaction Biology Corporation (assay service)
T20 sequence (Q9BXA6 whole entry): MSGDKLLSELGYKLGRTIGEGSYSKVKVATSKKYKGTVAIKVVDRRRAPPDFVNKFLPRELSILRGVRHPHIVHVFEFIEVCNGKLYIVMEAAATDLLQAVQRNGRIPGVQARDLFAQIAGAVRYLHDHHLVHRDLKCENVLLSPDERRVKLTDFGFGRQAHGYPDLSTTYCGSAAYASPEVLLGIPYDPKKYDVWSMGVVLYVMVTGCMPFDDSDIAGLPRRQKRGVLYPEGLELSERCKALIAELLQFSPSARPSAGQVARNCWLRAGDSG

[21] = molecular target: T21, panel of 370 protein kinases (Homo sapiens, UniProt Q9UF33); details: 2 h, kinase EPHA6; read-out: % Enzyme Activity (relative to DMSO controls)
T21 construct: purchased Reaction Biology Corporation (assay service)

CCN1CCN(C(=O)c2ccc(Nc3ncc(F)c(-c4ccc5nc(N(C)C)sc5c4)n3)nc2)CC1 [YK-2-69]
remaining activity at 1 µM [1]: 96%
remaining activity at 1 µM [2]: 77.1%
remaining activity at 1 µM [3]: 115%
remaining activity at 1 µM [4]: 108%
remaining activity at 1 µM [5]: 99.4%
remaining activity at 1 µM [6]: 85.3%
remaining activity at 1 µM [7]: 97.9%
remaining activity at 1 µM [8]: 103%
remaining activity at 1 µM [9]: 84.8%
remaining activity at 1 µM [10]: 60.8%
remaining activity at 1 µM [11]: 86.2%
remaining activity at 1 µM [12]: 96.3%
remaining activity at 1 µM [13]: 98.5%
remaining activity at 1 µM [14]: 108%
% Enzyme Activity (relative to DMSO controls) [15]: 103.56% and 103.10%
remaining activity at 1 µM [16]: 96.3%
remaining activity at 1 µM [17]: 103%
remaining activity at 1 µM [18]: 65.5%
remaining activity at 1 µM [19]: 106%
remaining activity at 1 µM [20]: 107%
remaining activity at 1 µM [21]: 104%
